system: ability of TGF-β to promote transcription of a Type I collagen gene; assay: Inhibition of the ability of TGF-β to promote transcription of a Type I collagen gene (COL-Luc reporter gene assay); type: cell-based; settings: final concentration 1 μM; TGF-β added; normal human fetal skin fibroblast transfected with COL-Luc; 40 hours; read-out: Inhibition percentage
Experimental: 1×10^8 cells of a normal human fetal skin fibroblast (Clontech, catalogue No. CC-2509) were cultured at 37° C. overnight under 5% CO2 atmosphere. After the cultured cells were washed with a sodium phosphate buffer (hereinafter, referred to as PBS) twice, 3 ml of PBS was added thereto and the cells were scraped away the wall of a vessel using a cell scraper (Nalgen, catalogue No. 179693). The scraped cells were collected by centrifugation (1,500 rpm, 4° C., 15 min), and these were suspended in 20 ml of PBS and centrifuged again. To the resulting precipitates were added 11 ml of Solution 2 and 4.8 μl of pronase of DNA Extraction Kit (Stratagene, catalogue No. 200600). After shaken at 60° C. for 1 hour, the resulting mixture was allowed to stand in ice for 10 minutes. Then, 4 ml of Solution 3 of the kit was added to the mixture. After mixed, the mixture was allowed to stand in ice for 5 minutes and then centrifuged (3,000 rpm, 4° C., 15 min) to recover a supernatant. To the recovered supernatant was added 2 μl of RNase per 1 ml of the supernatant and the mixture was allowed to stand at 37° C. for 15 minutes. To the mixture was added 2-fold volume of ethanol. After mixed, a white thread-like substance (genomic DNA) appeared and the substance was recovered. The recovered genomic DNA was washed with 70% ethanol and then air-dried. The air-dried genomic DNA was dissolved in 500 μl of 10 mM Tris-HCl, 1 mM EDTA (pH 8.0) (hereinafter, referred to as TE).
The resulting genomic DNA solution (the amount equivalent to 1 μg of genomic DNA), each 1 μl (10 pmol/μl) of an oligonucleotide consisting of the nucleotide sequence represented by SEQ ID No:1 and an oligonucleotide consisting of the nucleotide sequence represented by SEQ ID No:2, 29 μL of distilled water, 5 μl of the buffer attached to TaKaRa LA Taq (TAKARA SHUZO, catalogue No. RR002A), 5 μL of a Mg^2+ solution, 5 μL of a dNTP mixture and 0.5 μl of TaKaRa LA Taq (TAKARA SHUZO, catalogue No. RR002A) were mixed. After the resulting mixed solution was incubated at 94° C. for 5 minutes, the mixed solution was subjected to 30 cycles, in which one cycle consists of incubation at 94° C. for 1 minute, at 60° C. for 1 minute and then at 72° C. for 1 minute. The mixed solution was electrophoresed on a 2% agarose gel to recover about 0.5 kb of a DNA. The recovered DNA was treated with phenol/chloroform and then precipitated with ethanol to recover the DNA. The resulting DNA was dissolved in ultrapure water. To this solution were added 2.5 μl of NheI and 2.5 μl of HindIII, and then incubated at 37° C. for 3 hours. Then, the solution was electrophoresed on a 2% agarose gel to recover about 3.5 kb of a DNA. The recovered DNA was precipitated with ethanol to recover again the DNA (hereinafter, referred to as the collagen promoter DNA).
On the other hand, the vector pGL3 (Promega, catalogue No. E1751) having the nucleotide sequence encoding firefly luciferase was digested with NheI and HindIII, and then subjected to agarose gel electrophoresis as described above to recover about 5 kb of a DNA. The recovered DNA was precipitated with ethanol to recover the DNA again. To the recovered DNA were added 44 μl of distilled water, 5 μl of Buffer attached to Alkaline Phosphatase (TAKARA SHUZO, catalogue No. 2120A) and 1 μl of Alkaline Phosphatase (TAKARA SHUZO, catalogue No. 2120A). The mixed solution was incubated at 65° C. for 30 minutes. Then, the mixed solution was treated with phenol/chloroform twice, and precipitated with ethanol to recover the DNA (hereinafter referred to as the Luc vector DNA). Then, after about 20 ng of the collagen promoter DNA and about 20 ng of the Luc vector DNA were mixed, the same amount of a DNA Ligation kit Ver2 enzyme solution was added and this was incubated overnight at 16° C. To the mixed solution was added Escherichia coli 5Hdα (TOYOBO, catalogue No. DNA-903), this was allowed to stand in ice for 30 minutes, and then incubated at 42° C. for 45 seconds. […]

Row | SMILES | inhibition at 1 µM
1 | COCCOC(=O)Nc1cccc(C=CC(=O)c2c(O)c3ccccc3[nH]c2=O)c1 [Compound No. (21e), 4-hydroxy-3-[3-[3-[(2-methoxyethoxy)carbonylamino]phenyl]-1-oxo-2-propenyl]-2(1H)-quinolinone] | ≥ 70%
2 | COCCNC(=O)Nc1cccc(C=CC(=O)c2c(O)cc(C)[nH]c2=O)c1 [Compound No. (22a), 4-hydroxy-3-[3-[3-[(2-methoxyethyl)aminocarbonylamino]phenyl]-1-oxo-2-propenyl]-6-methyl-2(1H)-pyridinone] | ≥ 70%
3 | Cn1c(=O)c(C(=O)C=Cc2cccc(OCC#N)c2)c(O)c2ccccc21 [Compound No. (11e), 1-methyl-4-hydroxy-3-[3-[3-(cyanomethoxy)phenyl]-1-oxo-2-propenyl]-2(1H)-quinolinone] | ≥ 70%
4 | COCC(=O)Nc1ccc(C=CC(=O)c2c(O)cc(C)[nH]c2=O)cc1 [Compound No. (20a), 4-hydroxy-3-[3-[4-(methoxyacetylamino)phenyl]-1-oxo-2-propenyl]-6-methyl-2(1H)-pyridinone] | ≥ 70%
5 | COCC(=O)Nc1cccc(C=CC(=O)c2c(O)cc(C)[nH]c2=O)c1 [Compound No. (18a), 4-hydroxy-3-[3-[3-(methoxyacetylamino)phenyl]-1-oxo-2-propenyl]-6-methyl-2(1H)-pyridinone] | ≥ 70%
6 | COC(=O)CNC(=O)c1cccc(C=CC(=O)c2c(O)c3ccccc3[nH]c2=O)c1 [Compound No. (28e), 4-hydroxy-3-[3-[3-[[(methoxycarbonylmethyl)amino]carbonyl]phenyl]-1-oxo-2-propenyl]-2(1H)-quinolinone] | ≥ 70%
7 | Cc1cc(O)c(C(=O)C=Cc2ccc(OCC#N)cc2)c(=O)[nH]1 [Compound No. (13a), 4-hydroxy-3-[3-[4-(cyanomethoxy)phenyl]-1-oxo-2-propenyl]-6-methyl-2(1H)-pyridinone] | ≥ 70%
8 | N#CCOc1ccc(C=CC(=O)c2c(O)c3ccccc3[nH]c2=O)cc1 [Compound No. (13e), 4-hydroxy-3-[3-[4-(cyanomethoxy)phenyl]-1-oxo-2-propenyl]-2(1H)-quinolinone] | ≥ 70%
9 | COC(=O)COc1cccc(C=CC(=O)c2c(O)cc(C)[nH]c2=O)c1 [Compound No. (7a), 4-hydroxy-3-[3-[3-[(methoxycarbonyl)methoxy]phenyl]-1-oxo-2-propenyl]-6-methyl-2(1H)-pyridinone] | ≥ 70%
10 | CS(=O)(=O)NC(=O)c1cccc(C=CC(=O)c2c(O)c3ccccc3[nH]c2=O)c1 [Compound No. (26e), 4-hydroxy-3-[3-[3-[(methanesulfonyl)aminocarbonyl]phenyl]-1-oxo-2-propenyl]-2(1H)-quinolinone] | ≥ 70%
11 | Cc1cc(O)c(C(=O)C=Cc2cccc(C(=O)NCC#N)c2)c(=O)[nH]1 [Compound No. (35a), 4-hydroxy-3-[3-[3-[(cyanomethyl)aminocarbonyl]phenyl]-1-oxo-2-propenyl]-6-methyl-2(1H)-pyridinone] | ≥ 70%
12 | N#CCNC(=O)c1cccc(C=CC(=O)c2c(O)c3ccccc3[nH]c2=O)c1 [Compound No. (33e), 4-hydroxy-3-[3-[3-[[(cyanomethyl)amino]carbonyl]phenyl]-1-oxo-2-propenyl]-2(1H)-quinolinone] | ≥ 70%
13 | Cc1cc(O)c(C(=O)C=Cc2cccc(OCC#N)c2)c(=O)n1C [Compound No. (11a), 4-hydroxy-3-[3-[3-(cyanomethoxy)phenyl]-1-oxo-2-propenyl]-1,6-dimethyl-2(1H)-pyridinone] | ≥ 70%

system: mRNA of Type I collagen gene in renal glomerulus; assay: mRNA of Type I collagen gene in renal glomerulus of anti-Thy-1 antibody-administered rats (improvement of chronic renal failure); type: in vivo, rat; settings: Example 5; anti-Thy-1 antibody rats; 15 mg/kg/day orally for 7 days in corn oil
Experimental: IgG was purified from an ascites-lyophilized powder (CEDARLANE, lot No. 05122) containing an anti-rat CD90 (Thy1.1) monoclonal antibody using MAbTrap kit (Amersham Biosciences, catalogue No. 17-1128-01).
6 ml of a binding buffer was added to 3 ml of ascites to sufficiently recover it, and this was passed through a 0.22 μm filter. The resulting solution was applied to a pre-bufferized column, and the column was then washed with 10 ml of a binding buffer. Thereafter, the column was eluted with 5 ml of an elution buffer. From washing, each 1 ml was fractionated, and the protein concentration of each fraction was measured using bovine serum albumin as a standard. A single peak was confirmed from an elution pattern, and an IgG fraction was dialyzed against a physiological saline overnight at 4° C. The protein concentration of the resulting anti-Thy-1 antibody (IgG) was calculated.
The present compounds represented by the compound numbers (28a) (hereinafter, referred to as the present compound (28a)), the present compound represented by a compound number (30a) (hereinafter, referred to as the present compound (30a)), the present compound represented by a compound number (33a) (hereinafter, referred to as the present compound (33a)), the present compound represented by a compound number (10e) (hereinafter, referred to as the present compound (10e)), the present compound represented by a compound number (18e) (hereinafter referred to as the present compound (18e)), the present compound represented by a compound number (31e) (hereinafter, referred to as the present compound (31e)) and a corn oil which is a medium were weighed. These were mixed using a mortar and a pestle to prepare a […]. Using four 7-week old male Wistar rats [Nippon Charles River] per group, 60 μg/ml of the anti-Thy-1 antibody (IgG) or a physiological saline was intravenously injected via a tail vein at 5 ml/kg. […] A dose of the present compound was 15 mg/kg/day.
On the next day of final administration, a rat reared as described in the above (2) was slaughtered by collection of whole blood, and kidneys were isolated. A whole RNA was separated from the cortex of the isolated kidney using RNeasy Mini Kit (QIAGEN, catalogue No. 74106). To 5 μl (50 ng) of the separated whole RNA were added 1 μl of 20 μM oligo dT and 4 μl of RNase-free distilled water. After the mixture was incubated at 65° C. for 5 minutes, it was immediately ice-cooled. To 10 μl of the solution were added 4 μl of 5× buffer, 2.4 μl of MgCl2, 1 μl of 10 mM dNTP, 1 μl of RNasin, 1 μl of Improm II and 0.6 μl of RNase-free distilled water (all available from Promega), and a reverse transcription reaction was performed under the condition of at 25° C. for 5 minutes, at 42° C. for 1 hour, and at 70° C. for 15 minutes.
Into 5 μl of the reverse transcription reaction solution were mixed each 2 μl of each 1.25 pmol/μl of primers represented by SEQ ID NOS: 3 and 4, 1.25 μl of a probe (FAM-ctcgccttca tgcgcctgct agc-TAMRA) for detecting DNA of a Type I collagen gene represented by SEQ ID No:5, each 0.25 μl of Rodent GAPDH primers, 0.25 μl of a Rodent GAPDH probe, 12.5 μl of TaqMan Universal PCR Master Mix (all available from Applied Biosystem) and 1.5 μl of sterilized water in a well of Optical 96-Well Reaction Plate (Applied Biosystem, catalogue No. N801-0560). As a standard, in place of 5 μl of the reverse transcription reaction solution, each 5 μl of 500, 250, 125, 62.5, 31.25, 15.625 ng/μl rat renal cortex cDNA which had been prepared in advance was used. Thereafter, using Gene Amp 7900 (Applied Biosystem), PCR was performed under the condition of at 50° C. for 5 minutes, and 40 cycles in which one cycle is at 95° C. for 15 seconds and at 60° C. for 1 minute. […]

Row | SMILES | ability to improve chronic renal failure
14 | COCCNC(=O)c1ccc(C=CC(=O)c2c(O)cc(C)[nH]c2=O)cc1 [Compound No. (33a), 4-hydroxy-3-[3-[4-[(2-methoxyethyl)aminocarbonyl]phenyl]-1-oxo-2-propenyl]-6-methyl-2(1H)-pyridinone] | have the ability to improve chronic renal failure

same assay, conditions: Table 3; Type I collagen amount/GAPDH amount, renal cortex; anti-Thy-1 antibody +; 15 mg/kg/day orally for 7 days in corn oil; Wistar rats; control group 3.4, normal group 1.9; test results p < 0.05

Row | SMILES | mRNA of collagen gene
15 | COCCNC(=O)c1ccc(C=CC(=O)c2c(O)cc(C)[nH]c2=O)cc1 [Compound No. (33a), 4-hydroxy-3-[3-[4-[(2-methoxyethyl)aminocarbonyl]phenyl]-1-oxo-2-propenyl]-6-methyl-2(1H)-pyridinone] | 2.4

Source: US7989478B2, “Cinnamoyl compound and use of the same” (Sumitomo Chemical Company, Limited, priority 2003, dated 2011)
